Common to all, as to assay: inhibition of tumour cell growth, NCI panel, 48 h
In test [1] the test system is SK-MEL-2 melanoma.
For test [2], the system named is MDA-MB-435.
Test [3] concerns HT29 colon.
The test system of test [4] is OVCAR-8 ovarian.
Test [5] relates to HOP-92 NSCLC.
The subject of test [6] is SR leukemia.
Test [7] relates to SNB-75 CNS.
Test [8] relates to SF-295 CNS.
Test [9] relates to UACC-62 melanoma.
For test [10], the system named is RPMI-8226 leukemia.
Test [11] has as its system SK-MEL-28 melanoma.
In test [12] the test system is HCT-116 colon.
In test [13] the test system is SF-268 CNS.
Test [14] relates to BT-549 breast.
Test [15] concerns RXF 393 renal.
Test [16] has as its system HOP-62 NSCLC.
Test [17] deals with SN12C renal.
Test [18] relates to OVCAR-5 ovarian.
Test [19] deals with NCI-H23 lung.

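Step 1: Grow cells in 96-well plates. Step 2: Expose to compound for 48 hours at 5 concentrations. Step 3: Interpolate endpoints linearly; if unreached, use highest concentration. TGI marks complete inhibition of growth.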 A value given as a limit tells only on which side of the number the result lay.

The values below come from PubChem BioAssay (NCI).

As to `c1ccc2c(c1)c1c3c(c4c(n32)=NCCN4)CCC1`, the TGI in test [1] is 66.2 µM; in test [2], over 100 µM; in test [3], 56.7 µM; in [4], over 100 µM; in test [5], 88 µM; in [6] it was 47.4 µM. Also, the TGI in test [7] is 71.5 µM; in test [8], over 100 µM; in [9] it was over 100 µM; in test [10] it was 63.2 µM; in test [11], over 100 µM; in test [12], over 100 µM. The TGI in test [13] is over 100 µM; in test [14], over 100 µM; in [15], 60.8 µM; in test [16], over 100 µM; in [17], 49.4 µM; in test [18], over 100 µM. This compound gave a TGI in test [19] of over 100 µM.

As to `O=CC1C(Cl)=Nc2nc3ccccc3n2C1c1ccccc1` (stereo not drawn), the TGI in [1] is 27.3 µM; in test [2], over 100 µM; in [3], 37.7 µM; in [4], 52.9 µM; in test [5], 25.5 µM; in test [6], 14.4 µM. Further, the TGI is 33.7 µM in [7]; over 100 µM in test [8]; 50 µM in test [9]; 43.8 µM in test [10]; 30.3 µM in [11]; 70.5 µM in test [12]. In addition, the TGI is 37.2 µM in test [13]; 29 µM in test [14]; 30.9 µM in test [15]; 44.2 µM in test [16]; 44.8 µM in [17]; 79.6 µM in test [18]. Moreover, the TGI in test [19] worked out at 56.6 µM.

Consider `CC(C)OC(=O)[C@H]1ON2O[C@H](O[C@@H]3CCCC[C@H]3c3ccccc3)C([Si](C)(C)c3ccccc3)[C@H]3OC(=O)[C@@H]1C32` (stereo partly drawn), for which the TGI in [1] was over 100 µM; in test [2], over 100 µM; in [3], over 100 µM; in [4], over 100 µM; in test [5], over 100 µM; in test [6], 54.2 µM. Also, the TGI in [7], in test [8], in test [9], in test [10], in [11] and in test [12] was over 100 µM in each case. Moreover, the TGI in test [13], in test [14], in [15], in test [16], in test [17] and in test [19] was over 100 µM throughout.

`O=S(=O)(O)c1ccc2c(N=Nc3ccc(S(=O)(=O)O)c4ccccc34)c(O)c(S(=O)(=O)O)cc2c1`: the TGI in test [1], in [2], in test [3], in [4], in test [5] and in test [6] was over 100 µM in each case. In addition, the TGI in test [7], in test [8], in [9], in test [10], in test [11] and in [12] was over 100 µM throughout. Moreover, the TGI in test [13], in [14], in test [15], in test [16], in test [17] and in test [18] was over 100 µM each time. The compound further gave a TGI in test [19] of over 100 µM.

Regarding `CCOC(=O)NN(C(=O)OCC)C(=C(C1=CCCCC1)N1CCOCC1)N(NC(=O)OCC)C(=O)OCC`, the TGI in test [2], in [3], in test [4], in test [5], in [6] and in [7] was over 100 µM throughout. The TGI in test [8], in test [9], in test [10], in test [11], in test [13] and in [14] was over 100 µM in each case. In addition, the TGI in test [15], in test [16], in [17], in test [18] and in [19] was over 100 µM in each case.

For the compound `CCOC(=O)c1c(N2CCCC2)[nH]c(=O)c(C(c2ccc(Cl)c([N+](=O)[O-])c2)c2c(O)c(C(=O)OCC)c(N3CCCC3)[nH]c2=O)c1O`, the TGI is over 100 µM in test [2]; 33.5 µM in test [4]; 58.3 µM in test [5]; over 100 µM in [6]; 34.4 µM in test [7]; over 100 µM in test [8]. For the same compound, the TGI was 86 µM in test [9]; over 100 µM in test [10]; over 100 µM in test [11]; over 100 µM in [12]; 55.2 µM in test [13]; 51.8 µM in test [14]. The TGI in [15] was 99.6 µM; in test [16], over 100 µM; in test [17] it was over 100 µM; in [18] it was over 100 µM; in test [19], 48.9 µM.

In the case of `CC(=O)Oc1c2ccsc2c(OC(C)=O)c2ccsc12`, the TGI in test [1] was found to be 1.98 µM; in test [2], 0.377 µM; in test [3], 4.45 µM; in test [4], 1.22 µM; in test [5], 2.75 µM; in test [6], 0.88 µM. Besides, the TGI in test [7] was 0.753 µM; in [8], 2.41 µM; in [9], 3.3 µM; in test [10] it was over 28 µM; in test [11] it was 1.24 µM; in test [12] it was 2.21 µM. Moreover, the TGI is 5.81 µM in test [13]; 1.86 µM in test [14]; 0.501 µM in test [15]; 4.4 µM in test [16]; 2.03 µM in [17]; 1.05 µM in [19].

For `c1ccc(-c2c(-c3cccs3)[nH]c(-c3cccs3)c2-c2ccccn2)nc1`, the TGI in test [2] amounted to 43.6 µM; in [3], 30.3 µM; in [4], 75.2 µM; in [5] it was 55.4 µM; in test [6], 81.1 µM; in test [7] it was 42.9 µM. Moreover, the TGI in test [8] is 39.2 µM; in test [9], 35.6 µM; in test [10] it was 68.5 µM; in test [12], over 100 µM; in test [13] it was 49.8 µM; in test [14] it was 41.5 µM. Moreover, the TGI in [15] is 53.5 µM; in test [17], 67.9 µM; in test [18], 66.6 µM; in test [19], over 100 µM.
